Usually pIC50 stands for the IC50 on a negative log10 scale, so that one unit is a factor of ten. A high value points to a small IC50.

The subject of one test is U937. As to the kind of experiment: U937 cell inhibition assay (WST-1 cell viability). In kind it is cell-based. As to conditions: Homo sapiens, U-937; U937 cells, 72-96 h, WST-1 assay, IC50 range. The procedure, abridged: (§1)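 Cells seeded at 1000-2000/well, grown 24 h, then treated for 72-96 h with 8 concentrations (top 10 μM, 3-fold, 6 replicates). Viability by WST-1; inhibition relative to DMSO, IC50 by sigmoidal variable-slope fit.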
(In general: Tetrazolium dyes change colour on reduction, which living cells bring about.)

The next test concerns HeLa cells. Kind of test: HeLa cell inhibition assay (SRB cell viability). The class given is cell-based. As to conditions: Homo sapiens, HeLa, 72 h, IC50 range. The method, boiled down: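 Log-phase cells seeded at 1000 cells/well, grown 24 h, then exposed to compound (final 20 μM top concentration) for 72 h. Viability by sulphorhodamine B staining, % inhibition relative to DMSO control. IC50 from 8-point sigmoidal variable-slope fit.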

Test [1] has as its target histone deacetylase activity (HeLa nuclear extract). Kind of test: HDAC fluorescent activity assay (Biomol, Fluor de Lys substrate). In kind it is biochemical. As to conditions: IC50 range. The procedure, abridged: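 HeLa nuclear extract served as the deacetylase source for the acetyl-lysine Fluor de Lys substrate, with or without inhibitor. Developer converts deacetylated substrate to a fluorophore.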

The next test has as its system HUT. Kind of test: HUT cell inhibition assay (WST-1 cell viability). The class given is cell-based. Conditions: HUT cells, 72-96 h, WST-1 assay, IC50 range. The procedure, abridged: as §1

pIC50: −log10 of the molar value. A value given as a limit tells only on which side of the number the result lay.

With `O=C(NO)c1cnc(N2CC3C(C2)C3N(Cc2ccc3ccccc3c2)C(=O)CCc2cccnc2)nc1` (stereo not shown) [Example 61, N-Hydroxy 2-{6-[naphthalen-2-ylmethyl-(3-pyridin-3-yl-propionyl)amino]-3-aza-bicyclo[3.1.0]hex-3-yl}pyrimidine-5-carboxamide], the pIC50 was 5.48 to 6.48 in the test with U937, 5.48 to 6.48 with HeLa cells, over 7.00 in test [1] and over 6.48 in the test on HUT.

In the case of `O=C(NO)c1cnc(N2CC3C(C2)C3N2CCOCC2)nc1` (stereo not shown) [Example 62, N-Hydroxy 2-(6-morpholin-4-yl-3-azabicyclo[3.1.0]hex-3-yl)pyrimidine-5-carboxamide], the pIC50 in the test on U937 is under 5.48; with HeLa cells, under 5.48; in test [1] it was 6.00 to 7.00; in the test with HUT it was 5.48 to 6.48.

For the compound `O=C(NO)c1cnc(N2CC3C(C2)C3N2CCCCC2)nc1` (stereo not shown) [Example 63, N-Hydroxy 2-(6-piperidin-1-yl-3-azabicyclo[3.1.0]hex-3-yl)pyrimidine-5-carboxamide], the pIC50 in the test on U937 was under 5.48; with HeLa cells, under 5.48; in test [1], 6.00 to 7.00; in the test on HUT, 5.48 to 6.48.

On to `O=C(NO)c1cnc(N2CC3C(C2)C3N2Cc3ccccc3C2)nc1` (stereo not shown) [Example 64, N-Hydroxy 2-[6-(1,3-dihydro-2H-isoindol-2-yl)-3-azabicyclo[3.1.0]hex-3-yl]pyrimidine-5-carboxamide], for which the negative logarithm of the IC50 (pIC50) with U937 was 5.48 to 6.48; with HeLa cells, 5.48 to 6.48; in test [1], over 7.00; in the test on HUT, over 6.48.

For the compound `O=C(NO)c1cnc(N2CC3C(C2)C3N2Cc3ccccc3CC2=O)nc1` (stereo not shown) [Example 65, N-Hydroxy 2-[6-(3-oxo-3,4-dihydroisoquinolin-2(1H)-yl)-3-azabicyclo[3.1.0]hex-3-yl]pyrimidine-5-carboxamide], the pIC50 in the test on U937 was 5.48 to 6.48; in the test on HeLa cells it was 5.48 to 6.48; in test [1], over 7.00; in the test with HUT it was 5.48 to 6.48.

As for `O=C(NO)c1cnc(N2CC3C(C2)C3N2CCc3ccccc3C2)nc1` (stereo not shown) [Example 66, N-Hydroxy 2-[6-(3,4-dihydroisoquinolin-2(1H)-yl)-3-azabicyclo[3.1.0]hex-3-yl]pyrimidine-5-carboxamide], the negative-log IC50 (pIC50) with U937 was 5.48 to 6.48; in the test on HeLa cells it was 5.48 to 6.48; in test [1], over 7.00; in the test with HUT, 5.48 to 6.48.

Turning to `O=C(NO)c1cnc(N2CC3C(C2)C3Nc2ccc3ccccc3n2)nc1` (stereo not shown) [Example 67, N-Hydroxy 2-[6-(quinolin-2-ylamino)-3-azabicyclo[3.1.0]hex-3-yl]pyrimidine-5-carboxamide], the pIC50 with U937 was 5.48 to 6.48; with HeLa cells, 5.48 to 6.48; in test [1] it was over 7.00; in the test on HUT it was over 6.48.

As for `O=C(NO)c1cnc(N2CC3C(C2)C3Nc2nccc3ccccc23)nc1` (stereo not shown) [Example 68, N-Hydroxy 2-[6-(isoquinolin-1-ylamino)-3-azabicyclo[3.1.0]hex-3-yl]pyrimidine-5-carboxamide], the pIC50 in the test on U937 was over 6.48; in the test on HeLa cells, over 6.48; in test [1], over 7.00; in the test with HUT, over 6.48.

As for `O=C(NO)c1cnc(NC2C3CN(S(=O)(=O)c4ccc5ccccc5c4)CC32)nc1` (stereo not shown) [Example 69, N-Hydroxy 2-{[3-(2-naphthylsulfonyl)-3-azabicyclo[3.1.0]hex-6-yl]amino}pyrimidine-5-carboxamide], the pIC50 is under 5.48 in the test with U937, under 5.48 in the test on HeLa cells, over 7.00 in test [1] and 5.48 to 6.48 with HUT.

Consider `O=C(NO)c1cnc(N2CC(NS(=O)(=O)c3ccc4ccccc4c3)C2)nc1` [Example 70, N-Hydroxy 2-{3-[(2-naphthylsulfonyl)amino]azetidin-1-yl}pyrimidine-5-carboxamide], for which the pIC50 in the test on U937 is under 5.48; in the test with HeLa cells, under 5.48; in test [1], over 7.00; with HUT, 5.48 to 6.48.

For the origin of these results see US7932246B2, “Histone deacetylase inhibitors” (Chroma Therapeutics Ltd., priority 2005, dated 2011).
